Experimental data reported in US10717730B1, “Dihydroisoquinoline compound” (SUZHOU ARK BIOPHARMACEUTICAL CO., LTD., priority 2017, dated 2020).
pIC50: −log10 of the molar value.

Legend:
[1] = Cytotoxicity CC50 (CellTiter-Glo); type: cell-based; conditions: human; HepG2.2.15 cells, four days
Procedure: HepG2.2.15 cells were seeded into 96-well white plate at 5000 cells/well and treated with serially diluted compounds. The plates were incubated in incubator with 5% CO2 at 37° C. for four days. The plate was taken out of incubator and adapted to room temperature for 30 minutes, followed by adding 25 μl CellTiter-Glo (Promega) reagent into each well and votexed at room temperature before being measured for luminance using spectrometer (Tecan Infinite® F200). The CC50 of each compound was defined as the compound concentration at which the treated well's cell viability is 50% compared to that of the DMSO treated well.

HBsAg = HBsAg assay (secreted HBsAg by CLIA in HepG2.2.15 cells); type: cell-based, hepatitis B virus (HBV); conditions: Hepatitis B virus, HepG2.2.15, 96 h
Procedure: HepG2.2.15 cells (Sells et al, Proc Natl Acad Sci USA. 1987 February; 84(4):1005-9), a constitutively HBV-expressing cell line, were cultured in DMEM medium supplemented with 10% FBS and 400 μg/mL G418, and maintained in 5% CO2 at 37° C.
HepG2.2.15 cells were seeded into 96-well plates at 3×10^4 cells/well. The next day, the cells were treated with a five-fold serial dilution series of the compound in DMSO. The final DMSO concentration in all wells was 0.5% and 0.5% DMSO was used as no drug control. After four days of incubation with compounds, the supernatants were harvested and measured for HBsAg concentration
The HBsAg chemiluminescence immunoassay (CLIA) kit was used to measure the levels of secreted HBsAg. Specifically, 50 μL of culture supernatant was transferred to the CLIA assay plate and 50 μL of enzyme conjugate reagent was added into each well. The plates were sealed and incubated for 1 hour at room temperature. The supernatant-enzyme-mixture was discarded and wells were washed for 6 times. The residual liquid was removed by plating on tissue paper. 25 μL of substrate A and B were added into each well. Luminance was measured using a spectrometer (Tecan Infinite® F200) after 10 minutes incubation. IC50 value was extrapolated based the dose-response curves generated from the data.

Work on `COc1cc2c(cc1-c1ccnn1C(C)C)CC(C(C)(C)C)n1cc(C(=O)O)c(=O)cc1-2` (stereo not shown) [Example 18, 6-(tert-butyl)-9-(1-isopropyl-1H-pyrazol-5-yl)-10-methoxy-2-oxo-6,7-dihydro-2H-pyrido[2,1-a]isoquinoline-3-carboxylic acid] yielded a CC50 at 4 days [1] of 50000 to 100000 nM and a pIC50 (HBsAg) of 7.11.
`COc1cc2c(cc1-c1c(C)cnn1C)CC(C(C)(C)C)n1cc(C(=O)O)c(=O)cc1-2` (stereo not shown) [Example 19, 6-(tert-butyl)-9-(1,4-dimethyl-1H-pyrazol-5-yl)-10-methoxy-2-oxo-6,7-dihydro-2H-pyrido[2,1-a]isoquinoline-3-carboxylic acid] showed a CC50 at 4 days [1] of 50000 to 100000 nM and a pIC50 (HBsAg) of 7.17.
In the case of `COc1cc2c(cc1-c1cnn(CC(=O)O)c1)CC(C(C)(C)C)n1cc(C(=O)O)c(=O)cc1-2` (stereo not shown) [Example 20, 6-(tert-butyl)-9-(1-carboxymethyl-1H-pyrazol-4-yl)-10-methoxy-2-oxo-6,7-dihydro-2H-pyrido[2,1-a]isoquinoline-3-carboxylic acid], the CC50 at 4 days [1] was over 100000 nM and the pIC50 (HBsAg) was 8.15.
Work on `CCOC(=O)CCn1cc(-c2cc3c(cc2OC)-c2cc(=O)c(C(=O)OCC)cn2C(C(C)(C)C)C3)cn1` (stereo not shown) [Example 21, Ethyl 6-(tert-butyl)-9-(1-(3-ethoxy-3-oxopropyl)-1H-pyrazol-4-yl)-10-methoxy-2-oxo-6,7-dihydro-2H-pyrido[2,1-a]isoquinoline-3-carboxylate] yielded a CC50 at 4 days [1] of 50000 to 100000 nM and a pIC50 (HBsAg) of 7.80.
Work on `COc1cc2c(cc1-c1cnn(CCC(=O)O)c1)CC(C(C)(C)C)n1cc(C(=O)O)c(=O)cc1-2` (stereo not shown) [Example 22, 6-(tert-butyl)-9-(1-(2-carboxyethyl)-1H-pyrazol-4-yl)-10-methoxy-2-oxo-6,7-dihydro-2H-pyrido[2,1-a]isoquinoline-3-carboxylic acid] yielded a CC50 at 4 days [1] of 50000 to 100000 nM and a pIC50 (HBsAg) of 8.15.
For `COc1cc2c(cc1-c1cnn(CCCC(=O)O)c1)CC(C(C)(C)C)n1cc(C(=O)O)c(=O)cc1-2` (stereo not shown) [Example 24, 6-(tert-butyl)-9-(1-(3-carboxypropyl)-1H-pyrazol-4-yl)-10-methoxy-2-oxo-6,7-dihydro-2H-pyrido[2,1-a]isoquinoline-3-carboxylic acid], the CC50 at 4 days [1] was 50000 to 100000 nM and the pIC50 (HBsAg) was 8.10.
`COc1cc2c(cc1-c1c[nH]nc1C)CC(C(C)(C)C)n1cc(C(=O)O)c(=O)cc1-2` (stereo not shown) [Example 25, 6-(tert-butyl)-10-methoxy-9-(3-methyl-1H-pyrazol-4-yl)-2-oxo-6,7-dihydro-2H-pyrido[2,1-a]isoquinoline-3-carboxylic acid] gave a CC50 at 4 days [1] of 50000 to 100000 nM and a pIC50 (HBsAg) of 8.15.
Work on `COc1cc2c(cc1-c1cnc(C)s1)CC(C(C)(C)C)n1cc(C(=O)O)c(=O)cc1-2` (stereo not shown) [Example 28, 6-(tert-butyl)-10-methoxy-9-(2-methylthiazol-5-yl)-2-oxo-6,7-dihydro-2H-pyrido[2,1-a]isoquinoline-3-carboxylic acid] yielded a CC50 at 4 days [1] of over 100000 nM and a pIC50 (HBsAg) of 9.70.
Work on `COc1cc2c(cc1-c1nncn1CCCO)CC(C(C)(C)C)n1cc(C(=O)O)c(=O)cc1-2` (stereo not shown) [Example 31, 6-(tert-butyl)-9-(4-(3-hydroxypropyl)-4H-1,2,4-triazol-3-yl)-10-methoxy-2-oxo-6,7-dihydro-2H-pyrido[2,1-a]isoquinoline-3-carboxylic acid] yielded a CC50 at 4 days [1] of 50000 to 100000 nM and a pIC50 (HBsAg) of 6.08.
For `COc1cc2c(cc1-c1ncn(CCCO)n1)CC(C(C)(C)C)n1cc(C(=O)O)c(=O)cc1-2` (stereo not shown) [Example 32, 6-(tert-butyl)-9-(1-(3-hydroxypropyl)-1H-1,2,4-triazol-3-yl)-10-methoxy-2-oxo-6,7-dihydro-2H-pyrido[2,1-a]isoquinoline-3-carboxylic acid], the CC50 at 4 days [1] was 50000 to 100000 nM and the pIC50 (HBsAg) was 7.01.
Work on `COc1cc2c(cc1-c1ccc(C)nc1)CC(C(C)(C)C)n1cc(C(=O)O)c(=O)cc1-2` (stereo not shown) [Example 37, 6-(tert-butyl)-10-methoxy-9-(6-methylpyridin-3-yl)-2-oxo-6,7-dihydro-2H-pyrido[2,1-a]isoquinoline-3-carboxylic acid] yielded a CC50 at 4 days [1] of 50000 to 100000 nM and a pIC50 (HBsAg) of 8.05.
